Experimental findings from patent US9593155B2, “Oxyntomodulin analogs” (priority 2009, dated 2017) are described below.

Read-outs that look alike come from different tables or passages of the source. *1 amine or outer side, *2 acyl side, *3 side chain or, on linkers, in order; H or OH if unused. Where a SMILES comes first, the peptide text is derived from it. Bridges are numbered along the chain shown (N, C = ends). Where no end group is shown, it is not given here. Side-chain parts run from the residue outwards. [ ]: non-standard residue; d: D form. The star is where a group is joined. X2 = CC(C)CCC[C@@H](C)[C@H]1CC[C@H]2[C@@H]3CC=C4C[C@@H](OC(=O)CCOCCOCCOCCOCCOCCOCCOCCOCCOCCOCCOCCOCCNC(=O)C*)CC[C@]4(C)[C@H]3CC[C@]12C; γGlu = O=C(O)[C@H](CCC(=O)[*:2])N[*:1]; Palmitoyl = CCCCCCCCCCCCCCCC(=O)*; Aib = CC(C)(N)C(=O)O

The target in one data set is T1, GCGR (Mus musculus, UniProt Q61606).
T1 construct: from tissue; host or cells: liver of wild-type mice, dosed in vivo
The data set can be described thus: in vivo GCGR receptor occupancy competition assay with 125I-glucagon in wild-type mice.

Data set [1] in a line: 14 day chronic infusion food intake and body weight study in DIO mice. Format: in vivo, mouse. The following applies: for Cumulative food intake change / Cumulative weight change: 14 day chronic infusion.
From the text: Lean or diet-induced obese 10-12-week-old male C57BL/6 mice were purchased from Taconic Farms (Germantown, N.Y.) and housed in individual Tecniplast cages in a conventional SPF facility.
A short description of data set [2]: hyperglycemic clamp in DIO mice. Particulars: ~16 μg/kg/min i.v., last 60 minutes. Type of data set: in vivo, mouse.
Experimental: DIO mice (16 wk on high fat diet) were anesthetized with xylazine and ketamine and catheterized through the right internal jugular vein 3 days before the in vivo studies. […] The venous catheter was used for infusion, and blood samples were collected from the tail vein. Each animal was monitored for food intake and weight gain after surgery to ensure complete recovery. […] Briefly, plasma glucose was measured by OneTouch glucometer every 10 minutes during the 2 hour period. Twenty-five percent glucose (D-glucose, Sigma) was infused i.v. and the rate was adjusted periodically to clamp the plasma glucose levels (˜20 mM). […] Glucose infusion rate (GIR) was adjusted to body weight.
Data set [3] in a line: intraperitoneal glucose tolerance test (IPGTT) in lean C57BL/6N mice. Format: in vivo, mouse.
Experimental: Intraperitoneal glucose tolerance test. Male C57BL/6N mice were distributed by weight into treatment groups (n=6/group). […] 10 min prior the glucose challenge. Blood glucose concentrations were determined at T=−10 min and T=0 min (baseline). Mice were then immediately challenged, intraperitoneally, with D-glucose (2 g/kg). One group of vehicle-treated mice was challenged with 0.9% saline as a
negative control. Blood glucose levels were determined from tail bleeds taken at 20, 40 and 60 min after D-glucose challenge. […] Percent inhibition values for each treatment were generated from the AUC data normalized to the saline-challenged controls. Areas under the curve (AUC) for glucose (AUC glucose) was calculated using the trapezoidal method. […] Statistical analysis was done using unpaired 2-tailed Student's t test. P values<0.05 were reported as significant.
The target of data set [4] is T2, hGCGR (Homo sapiens, UniProt P47871). The data set is described as follows: ex vivo perfused liver glycogenolysis assay (13C NMR), humanized GCGR mice. The following applies: at 300 nM.
Experimental: Humanized GCGR mice (C57B/6N) were anesthetized (Nembutal IP, 50 mg/kg) in the middle of the dark cycle. The portal vein was then cannulated and the liver was excised and perfused with a preoxygenated Krebs-Henseleit bicarbonate buffered solution for 5-10 minutes which initially was not recirculated to wash out any endogenous substrates. […] A ^13C NMR-visible pool of glycogen was then created by the addition of the gluconeogenic substrate [2-^13C] Pyruvate and ammonium chloride (˜7 mM and 1 mM, respectively) to the perfusate, and the amount of ^13C glycogen contained in the liver was monitored in real time via the Cl resonance of the glucosyl units in glycogen.
Mice expressing human GCGR were anesthetized (Nembutal IP, 50 mg/kg) at approximately the middle of the dark cycle. The portal vein was then cannulated and tied off and the liver was excised. The liver was then placed into a 20 mm NMR tube and the initial Krebs solution was exchanged for a Krebs-BSA perfusate, which was recirculated. ^31P NMR spectroscopy was performed initially to examine the ATP and inorganic phosphate (Pi) levels in the liver which can be used to assess hepatic viability. […] Pyruvate+NH4Cl and the amount of glycogen contained in the liver was monitored in real time via the Cl resonance of the glucosyl units in glycogen.
Data set [5] has as its target T2, hGCGR. The data set is described as follows: fluorescence cell based cAMP assay, CHO cells stably expressing GCGR. The protocol:
(§1) We initially screened peptides in fluorescence cell based assays that measure production of cyclic-AMP (cAMP), using CHO cell lines stably expressing either recombinant human GLP-1R or human GCGR. Determination of Mouse and human GLP-1R and GCGR Agonist Activity was essentially as follows. CHO cells stably expressing mouse or human GLP-1R or GCGR were grown in Iscove's Modified Dulbecco's Medium (IMDM), 10% FBS, 1 mM L-glutamine, penicillin-streptomycin (100 μ/mL) and 750 μg G418/mL for three-four days before harvesting using Enzymefree Dissociation Media (EFDM, Specialty Media). […] The assay was terminated with the addition of the LANCE kit Detection buffer as per the manufacturer's instructions. The plates were held an additional hour at room temperature, then increasing cAMP levels were detected by a decrease in TR-FRET signal as measured in an EnVision counter (PerkinElmer) in comparison to a standard curve of cAMP as per the manufacturer's instructions. Data were analyzed using the linear and nonlinear regression analysis software, GraphPad Prism.
(§2) The in vitro potencies shown in Table 10 or Table 11 were determined from the results of assays that were similar to either the cell-based cAMP assays described herein above (Table 10) or the cell-based cAMP assays described in International Published Application No. WO2008101017, which is incorporated herein in its entirety, in particular the cell-based cAMP assays described therein (Table 11).

The target in data set [6] is T3, hGLP-1R (Homo sapiens, UniProt P43220). The data set is described as follows: cell-based cAMP assay as described in WO2008101017 (Table 11), hGLP-1R. An excerpt: (§3) This example presents tables showing the in vitro potencies of various peptide analogs at the human GLP-1 receptor (hGLP-1R) and the human glucagon receptor (hGCGR).
(Changes in cAMP serve as a functional read-out for many G protein-coupled receptors.)

In data set [7] the target is T2, hGCGR. The data set can be described thus: cell-based cAMP assay as described in WO2008101017 (Table 11), hGCGR.
From the text: as §3

The nature of data set [8]: pI of the peptide analogs.
In data set [9] the target is T3, hGLP-1R. The data set can be described thus: fluorescence cell based cAMP assay, CHO cells stably expressing GLP-1R. Also noted: expressed in transfected cells. The following applies: hGLP-1R EC50, Table 10. The protocol: as §1, with “The” for “The assay was terminated with the addition of the LANCE kit Detection buffer as per the manufacturer's instructions. The”
as §2

T2 sequence (P47871 26-477): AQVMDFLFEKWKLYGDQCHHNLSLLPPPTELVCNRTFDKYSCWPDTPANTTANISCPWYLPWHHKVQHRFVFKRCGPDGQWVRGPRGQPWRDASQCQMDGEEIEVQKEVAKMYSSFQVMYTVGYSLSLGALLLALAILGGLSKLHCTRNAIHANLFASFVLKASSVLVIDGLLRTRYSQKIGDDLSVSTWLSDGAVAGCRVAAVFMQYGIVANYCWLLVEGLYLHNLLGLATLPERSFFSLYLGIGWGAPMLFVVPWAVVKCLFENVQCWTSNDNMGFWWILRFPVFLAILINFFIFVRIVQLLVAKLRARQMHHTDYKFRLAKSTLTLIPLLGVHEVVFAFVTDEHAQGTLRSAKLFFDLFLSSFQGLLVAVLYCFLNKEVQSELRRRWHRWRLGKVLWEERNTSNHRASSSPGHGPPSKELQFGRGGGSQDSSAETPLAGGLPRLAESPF
T3 sequence (P43220 24-463): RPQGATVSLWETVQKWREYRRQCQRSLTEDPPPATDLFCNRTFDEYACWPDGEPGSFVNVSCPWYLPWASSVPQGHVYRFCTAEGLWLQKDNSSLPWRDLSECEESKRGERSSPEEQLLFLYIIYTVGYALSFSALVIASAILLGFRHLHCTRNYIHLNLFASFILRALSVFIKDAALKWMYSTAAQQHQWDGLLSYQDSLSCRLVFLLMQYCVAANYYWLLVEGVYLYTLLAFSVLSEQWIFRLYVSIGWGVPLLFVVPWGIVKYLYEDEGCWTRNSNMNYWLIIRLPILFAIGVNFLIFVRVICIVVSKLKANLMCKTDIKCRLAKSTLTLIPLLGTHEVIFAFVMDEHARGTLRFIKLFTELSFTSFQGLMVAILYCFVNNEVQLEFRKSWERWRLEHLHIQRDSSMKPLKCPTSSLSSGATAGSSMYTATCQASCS
T1 sequence (Q61606 27-485): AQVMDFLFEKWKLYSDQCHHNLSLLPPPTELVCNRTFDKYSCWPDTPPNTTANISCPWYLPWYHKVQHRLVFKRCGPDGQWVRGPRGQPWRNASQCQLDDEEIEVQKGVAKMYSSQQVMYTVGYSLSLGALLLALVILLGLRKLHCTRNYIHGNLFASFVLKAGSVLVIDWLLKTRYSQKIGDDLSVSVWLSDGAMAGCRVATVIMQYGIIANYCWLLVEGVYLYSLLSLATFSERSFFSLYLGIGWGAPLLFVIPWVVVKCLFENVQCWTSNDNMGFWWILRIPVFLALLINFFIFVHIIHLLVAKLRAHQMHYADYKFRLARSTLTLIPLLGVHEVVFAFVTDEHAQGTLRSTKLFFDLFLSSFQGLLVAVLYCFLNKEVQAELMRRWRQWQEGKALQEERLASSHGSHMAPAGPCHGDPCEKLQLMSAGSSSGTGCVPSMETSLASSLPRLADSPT

Take glucagon [reference compound]: the GCGR occupancy with GCGR (1.5 mpk) is 84%.
The term EC50 denotes the concentration giving half of the maximal effect. “HSEGTFTSDYSKYLDSRRAQDFVQWLMNTKRNRNNIA [OXM-Q3E]”: in data set [1] (5 mg/kg), the ΔBW was −2.4%, the “Cumulative food intake change” value is reported as 207 kcal and the Cumulative weight change was -0.21 g. In data set [1] (0.5 mg/kg), the “Cumulative food intake change” value is given as 215 kcal and the Cumulative weight change was -0.21 g. Besides, the “GIR0-60 (glucose infusion rate)” value in data set [2] is 55 ± 4 mg/kg/min. Further, the “effectiveness at reducing glucose relative to native peptide” value in [3] (comparison of the minimal effective dose, IPGTT) is recorded as “about 10 fold”. Besides, the “blood glucose excursion in IPGTT” value in data set [3] (lean C57BL/6N mice, s.c.) is “significantly reduced blood glucose excursion in a dose-dependent manner”. For the same molecule, the GCGR occupancy at GCGR (subcutaneous, dose not given) was 0%. Further, the glycogenolysis induced entry at hGCGR [4] is “about 58%”. Besides, the response on hGCGR [5] (GCGR EC50, Table 4) was half-maximal at 1630 nM (EC50).
As for `CCCCCCCCCCCCCCCC(=O)N[C@@H](CCC(=O)N[C@@H](CCC(=O)NCCCC[C@H](NC(=O)[C@H](CC(=O)O)NC(=O)[C@H](CO)NC(=O)[C@@H](NC(=O)[C@H](Cc1ccccc1)NC(=O)[C@@H](NC(=O)CNC(=O)[C@H](CCC(N)=O)NC(=O)[C@@H](CO)NC(=O)[C@@H](N)Cc1c[nH]cn1)[C@@H](C)O)[C@@H](C)O)C(=O)N[C@@H](CO)C(=O)N[C@@H](CCCCN)C(=O)N[C@@H](Cc1ccc(O)cc1)C(=O)N[C@@H](CC(C)C)C(=O)N[C@@H](CC(=O)O)C(=O)N[C@@H](CCC(=O)O)C(=O)N[C@@H](CCCNC(=N)N)C(=O)N[C@@H](CCCNC(=N)N)C(=O)N[C@@H](C)C(=O)N[C@@H](CCC(N)=O)C(=O)N[C@@H](CC(=O)O)C(=O)N[C@@H](Cc1ccccc1)C(=O)N[C@H](C(=O)N[C@@H](CCC(N)=O)C(=O)N[C@@H](Cc1c[nH]c2ccccc12)C(=O)N[C@@H](CC(C)C)C(=O)N[C@@H](CCSC)C(=O)N[C@@H](CC(N)=O)C(=O)N[C@H](C(=O)N[C@@H](CCCCN)C(=O)N[C@@H](CCC(N)=O)C(=O)O)[C@@H](C)O)C(C)C)C(=O)O)C(=O)O` [MM111] (H-H[dS]QGTFTSDK([γGlu-γGlu-Palmitoyl])SKYLDERRAQDFVQWLMNTKQ-OH), the values for the EC50 on hGLP-1R [6] and at hGCGR [7] were 0.007 nM and 0.005 nM, respectively.
In the same order, the values of `CCCCCCCCCCCCCCCC(=O)N[C@@H](CCC(=O)N[C@@H](CCC(=O)NCCCC[C@H](NC(=O)[C@H](CC(=O)O)NC(=O)[C@H](CO)NC(=O)[C@@H](NC(=O)[C@H](Cc1ccccc1)NC(=O)[C@@H](NC(=O)CNC(=O)[C@H](CCC(N)=O)NC(=O)[C@@H](CO)NC(=O)[C@@H](N)Cc1c[nH]cn1)[C@@H](C)O)[C@@H](C)O)C(=O)N[C@@H](CO)C(=O)N[C@@H](CCCCN)C(=O)N[C@@H](Cc1ccc(O)cc1)C(=O)N[C@@H](CC(C)C)C(=O)N[C@@H](CC(=O)O)C(=O)NC(C)(C)C(=O)N[C@@H](CCCNC(=N)N)C(=O)N[C@@H](CCCNC(=N)N)C(=O)N[C@@H](C)C(=O)N[C@@H](CCC(N)=O)C(=O)N[C@@H](CC(=O)O)C(=O)N[C@@H](Cc1ccccc1)C(=O)N[C@H](C(=O)N[C@@H](CCC(N)=O)C(=O)N[C@@H](Cc1c[nH]c2ccccc12)C(=O)N[C@@H](CC(C)C)C(=O)N[C@@H](CCSC)C(=O)N[C@@H](CC(N)=O)C(=O)N[C@H](C(=O)N[C@H](CCCCN)C(=O)N[C@@H](CCC(N)=O)C(=O)O)[C@@H](C)O)C(C)C)C(=O)O)C(=O)O` [MM103] are 0.026 nM and 0.005 nM.
`CCCCCCCCCCCCCCCC(=O)N[C@@H](CCC(=O)N[C@@H](CCC(=O)NCCCC[C@H](NC(=O)[C@H](CC(=O)O)NC(=O)[C@H](CO)NC(=O)[C@@H](NC(=O)[C@H](Cc1ccccc1)NC(=O)[C@@H](NC(=O)CNC(=O)[C@H](CCC(N)=O)NC(=O)[C@@H](CO)NC(=O)[C@@H](N)Cc1c[nH]cn1)[C@@H](C)O)[C@@H](C)O)C(=O)N[C@@H](CO)C(=O)N[C@@H](CCCCN)C(=O)N[C@@H](Cc1ccc(O)cc1)C(=O)N[C@@H](CC(C)C)C(=O)N[C@@H](CC(=O)O)C(=O)NC(C)(C)C(=O)N[C@@H](CCCNC(=N)N)C(=O)N[C@@H](CCCNC(=N)N)C(=O)N[C@@H](C)C(=O)N[C@@H](CCC(N)=O)C(=O)N[C@@H](CC(=O)O)C(=O)N[C@@H](Cc1ccccc1)C(=O)N[C@H](C(=O)N[C@@H](CCC(N)=O)C(=O)N[C@@H](Cc1c[nH]c2ccccc12)C(=O)N[C@@H](CC(C)C)C(=O)N[C@@H](CCSC)C(=O)N[C@@H](CC(N)=O)C(=O)N[C@H](C(=O)N[C@@H](CCCCN)C(=O)N[C@@H](CCC(N)=O)C(=O)O)[C@@H](C)O)C(C)C)C(=O)O)C(=O)O` [OXM418] had a pI in [8] (Table 10) of 5.5. The EC50 on hGLP-1R [6] amounted to 0.026 nM; at hGCGR [5] (hGCGR + 20% plasma EC50, Table 10, 20% plasma), 0.3 nM.
In the case of `CSCC[C@H](NC(=O)[C@H](CC(C)C)NC(=O)[C@H](Cc1c[nH]c2ccccc12)NC(=O)[C@H](CCC(N)=O)NC(=O)[C@@H](NC(=O)[C@H](Cc1ccccc1)NC(=O)[C@H](CC(=O)O)NC(=O)[C@@H]1CCCCNC(=O)CC[C@H](NC(=O)[C@H](CC(=O)O)NC(=O)[C@H](CC(C)C)NC(=O)[C@H](Cc2ccc(O)cc2)NC(=O)[C@H](CCCCN)NC(=O)[C@H](CO)NC(=O)[C@H](Cc2ccc(O)cc2)NC(=O)[C@H](CC(=O)O)NC(=O)[C@H](CO)NC(=O)[C@@H](NC(=O)[C@H](Cc2ccccc2)NC(=O)[C@@H](NC(=O)CNC(=O)[C@H](CCC(N)=O)NC(=O)C(C)(C)NC(=O)[C@@H](N)Cc2c[nH]cn2)[C@@H](C)O)[C@@H](C)O)C(=O)N[C@@H](CCCNC(=N)N)C(=O)N[C@@H](CCCNC(=N)N)C(=O)N[C@@H](C)C(=O)N1)C(C)C)C(=O)N[C@@H](CC(N)=O)C(=O)N[C@H](C(=O)N[C@@H](CCCCN)C(=O)N[C@@H](CCC(=O)N[C@@H](CCC(=O)N[C@@H](CSCC(=O)NCCOCCOCCOCCOCCOCCOCCOCCOCCOCCOCCOCCOCCC(=O)O[C@H]1CC[C@@]2(C)C(=CC[C@H]3[C@@H]4CC[C@H]([C@H](C)CCCC(C)C)[C@@]4(C)CC[C@@H]32)C1)C(=O)O)C(=O)O)C(=O)O)[C@@H](C)O` [OXM395] (H-H[Aib]QGTFTSDYSKYLDERRAKDFVQWLMNTK[γGlu][γGlu]C(X2)-OH; lactam 16-20; N-terminus assumed), the pI result is on record as “about 5.4” in data set [8] and 5.4 in data set [8] (Table 10). For the same molecule, a half-maximal response on hGLP-1R [9] (EC50) required 0.7 nM.
